Data reported in US5696151A, “Compounds useful for the inhibition of the replication of HIV-1 and HIV-1 mutants” (priority 1995, dated 1997).
Values after ≈ are worked out from the molar mass of the structure shown.

Experiments:
Type in all cases: cell-based
[1] = in vitro; details: human, cem cells, CC50 (50% cytostatic concentration), Table 2B; CEM cell proliferation; averages of 2 to 3 independent experiments
Text: (§1) CEM cells were obtained from the American Tissue Cell Culture Collection (Rockville, Md.). HIV-1(IIIB) was originally obtained from the culture supernatant of persistently HIV-1-infected H9 cells and was provided by R. C. Gallo and M. Popovic (National Cancer Institute, National Institutes of Health, Bethesda, Md.). […] 67: 5353-5359 (1993); HIV-1/Lys-138 ("Lys-138") was selected for resistance against TSAO-m^3T as described in Balzarini et al, Virology 192: 246-253 (1993) and Balzarini et al, Proc. Nat. Acad. Sci. USA 90: 6952-6956 (1993); HIV-1/181-Cys ("181-Cys") was selected for resistance against pyridinone L-697,661 as described in Balzarini et al, Virology 192: 246-253 (1993); and HIV-1/188-His ("188-His") was selected for resistance against HEPT as described in Balzarini et al, Mol. Pharmocol. 44: 694-701 (1993). 188-His was then further converted to HIV-1/188-Leu "188-Leu") upon further passage in cell culture in the absence of the HEPT.
^b 50% cytostatic concentration (i.e., compound concentration require
to inhibit CEM cell proliferation by 50%)

[2] = system: HIV-1/181-Cys; test: Inhibition of HIV-1 induced syncytium formation in CEM cells, RT mutant 181-Cys; details: Human immunodeficiency virus 1, CCRF-CEM, 96 h, Table 2B, day 4, averages of 2 to 3 independent experiments, read-out: Antiviral Activity of Comparative Compounds EC50, 181-Cys
Text: as §1
(§2) CEM cells were suspended at ≈300,000 cells per ml of culture medium and infected with approximately 100 CCID50 (CCID50 being the 50% cell culture infective dose) of HIV-1(IIIB) or one of the HIV-1 RT mutant strains described above. Then 100 μl of the infected cell suspensions was added to 200 μl microtiter plate wells containing 100 μl of appropriate serial (5-fold) dilutions of the test compounds. The inhibitory effect of the test compounds on HIV-1 induced syncytium formation in CEM cells was examined microscopically on day 4 post infection.

[3] = system: HIV-1(IIIB); test: Inhibition of HIV-1 induced syncytium formation in CEM cells, wild type; details: Human immunodeficiency virus 1, IIIB, CCRF-CEM, 96 h, Table 2B, WT = HIV-1(IIIB), day 4, averages of 2 to 3 independent experiments, read-out: Antiviral Activity of Comparative Compounds EC50, WT
Text: as §1, §2

[4] = system: HIV-1/106-Ala; test: Inhibition of HIV-1 induced syncytium formation in CEM cells, RT mutant 106-Ala; details: Human immunodeficiency virus 1, CCRF-CEM, 96 h, Table 2B, day 4, averages of 2 to 3 independent experiments, read-out: Antiviral Activity of Comparative Compounds EC50, 106-Ala
Text: as §1, §2

[5] = system: HIV-1/Lys-138; test: Inhibition of HIV-1 induced syncytium formation in CEM cells, RT mutant 138-Lys; details: Human immunodeficiency virus 1, CCRF-CEM, 96 h, Table 2B, day 4, averages of 2 to 3 independent experiments, read-out: Antiviral Activity of Comparative Compounds EC50, 138-Lys
Text: as §1, §2

[6] = system: HIV-1/100-Ile; test: Inhibition of HIV-1 induced syncytium formation in CEM cells, RT mutant 100-Ile; details: Human immunodeficiency virus 1, CCRF-CEM, 96 h, Table 2B, day 4, averages of 2 to 3 independent experiments, read-out: Antiviral Activity of Comparative Compounds EC50, 100-Ile
Text: as §1, §2

SMILES	CC50 [1]	EC50 [2]	EC50 [3]	EC50 [4]	EC50 [5]	EC50 [6]
CCOC(=O)CSc1cc(NC(=S)c2ccoc2C)ccc1Cl [Compound 116]	≥ 100 mg/L	2 mg/L (≈ 5.41 µM)	0.085 mg/L (≈ 0.23 µM)	5.5 mg/L (≈ 14.9 µM)	0.6 mg/L (≈ 1.62 µM)	1.8 mg/L (≈ 4.87 µM)
Cc1ccccc1C(=S)Nc1ccc(Cl)c(C(=O)OC(C)C)c1 [Compound 91]	5.8 mg/L (≈ 16.7 µM)	7.5 mg/L (≈ 21.6 µM)	0.45 mg/L (≈ 1.29 µM)	8.5 mg/L (≈ 24.4 µM)	5 mg/L (≈ 14.4 µM)	4.5 mg/L (≈ 12.9 µM)
O=C(OC1CCCCC1)c1cc(NC(=S)c2ccccc2)ccc1Cl [Compound 82]	5.2 mg/L (≈ 13.9 µM)	0.8 mg/L (≈ 2.14 µM)	0.03 mg/L (≈ 0.0802 µM)	1 mg/L (≈ 2.67 µM)	0.55 mg/L (≈ 1.47 µM)	2 mg/L (≈ 5.35 µM)
Cc1ccsc1C(=S)Nc1ccc(Cl)c(C(=O)OC(C(C)C)C(C)C)c1 [Compound 101]	≥ 100 mg/L	0.55 mg/L (≈ 1.34 µM)	0.045 mg/L (≈ 0.11 µM)	0.2 mg/L (≈ 0.488 µM)	0.33 mg/L (≈ 0.805 µM)	3 mg/L (≈ 7.32 µM)
Cc1occc1C(=S)Nc1ccc(Cl)c(C(=O)OCC(F)(F)F)c1 [Compound 106]	> 100 mg/L	0.085 mg/L (≈ 0.225 µM)	0.007 mg/L (≈ 0.0185 µM)	0.08 mg/L (≈ 0.212 µM)	0.065 mg/L (≈ 0.172 µM)	0.5 mg/L (≈ 1.32 µM)
Cc1occc1C(=S)Nc1ccc(Cl)c(C(=O)OC(C(C)C)C(C)C)c1 [Compound 102]	3.7 mg/L (≈ 9.39 µM)	0.65 mg/L (≈ 1.65 µM)	0.03 mg/L (≈ 0.0762 µM)	0.85 mg/L (≈ 2.16 µM)	0.08 mg/L (≈ 0.203 µM)	0.85 mg/L (≈ 2.16 µM)
Cc1occc1C(=O)Nc1ccc(Cl)c(C(=O)OC(C)C)c1 [Compound 48]	3.8 mg/L (≈ 11.8 µM)	6 mg/L (≈ 18.6 µM)	0.45 mg/L (≈ 1.4 µM)	6.5 mg/L (≈ 20.2 µM)	3.5 mg/L (≈ 10.9 µM)	6.5 mg/L (≈ 20.2 µM)
COc1ccc(NC(=S)c2ccoc2C)cc1CC(=O)OC(C)C [Compound 57]	> 100 mg/L	0.5 mg/L (≈ 1.44 µM)	0.009 mg/L (≈ 0.0259 µM)	0.2 mg/L (≈ 0.576 µM)	0.08 mg/L (≈ 0.23 µM)	1.3 mg/L (≈ 3.74 µM)
CON=Cc1cc(NC(=S)c2ccoc2C)ccc1Cl [Compound 72]	24 mg/L (≈ 77.7 µM)	1.6 mg/L (≈ 5.18 µM)	0.03 mg/L (≈ 0.0972 µM)	0.5 mg/L (≈ 1.62 µM)	0.085 mg/L (≈ 0.275 µM)	2.3 mg/L (≈ 7.45 µM)
CC(C)(C)ON=Cc1cc(NC(=S)c2ccccc2)ccc1Cl [Compound 93]	9.7 mg/L (≈ 28 µM)	0.7 mg/L (≈ 2.02 µM)	0.03 mg/L (≈ 0.0865 µM)	0.1 mg/L (≈ 0.288 µM)	0.08 mg/L (≈ 0.231 µM)	2 mg/L (≈ 5.77 µM)
CCC(CC)COC(=O)c1cc(NC(=S)c2ccoc2C)ccc1Cl [Compound 108]	7 mg/L (≈ 18.4 µM)	0.08 mg/L (≈ 0.211 µM)	0.007 mg/L (≈ 0.0184 µM)	0.08 mg/L (≈ 0.211 µM)	0.07 mg/L (≈ 0.184 µM)	0.27 mg/L (≈ 0.711 µM)
Cc1sccc1C(=S)Nc1ccc(Cl)c(C=NOC(C)(C)C)c1 [Compound 61]	12 mg/L (≈ 32.7 µM)	0.2 mg/L (≈ 0.545 µM)	0.01 mg/L (≈ 0.0273 µM)	0.2 mg/L (≈ 0.545 µM)	0.05 mg/L (≈ 0.136 µM)	0.2 mg/L (≈ 0.545 µM)
Cc1occc1C(=O)Nc1ccc(Cl)c(COC(C)(C)C)c1 [Compound 52]	6.2 mg/L (≈ 19.3 µM)	≥ 10 mg/L	0.7 mg/L (≈ 2.18 µM)	5.5 mg/L (≈ 17.1 µM)	4 mg/L (≈ 12.4 µM)	8.5 mg/L (≈ 26.4 µM)
Cc1occc1C(=S)Nc1ccc(Cl)c(C(=O)OCC2CC2)c1 [Compound 105]	6.7 mg/L (≈ 19.2 µM)	0.07 mg/L (≈ 0.2 µM)	0.015 mg/L (≈ 0.0429 µM)	0.2 mg/L (≈ 0.572 µM)	0.085 mg/L (≈ 0.243 µM)	0.4 mg/L (≈ 1.14 µM)
Cc1occc1C(=S)Nc1ccc(Cl)c(COC(C)(C)C)c1 [Compound 53]	18 mg/L (≈ 53.3 µM)	0.55 mg/L (≈ 1.63 µM)	0.03 mg/L (≈ 0.0888 µM)	0.29 mg/L (≈ 0.858 µM)	0.08 mg/L (≈ 0.237 µM)	0.85 mg/L (≈ 2.52 µM)
Cc1ccoc1C(=S)Nc1ccc(Cl)c(C(=O)OC(C)C)c1 [Compound 87]	15 mg/L (≈ 44.4 µM)	0.53 mg/L (≈ 1.57 µM)	0.02 mg/L (≈ 0.0592 µM)	1 mg/L (≈ 2.96 µM)	0.55 mg/L (≈ 1.63 µM)	3 mg/L (≈ 8.88 µM)
C=CCOc1cc(NC(=S)c2sccc2C)ccc1C#N [Compound 77]	3.6 mg/L (≈ 11.4 µM)	> 1 mg/L	0.045 mg/L (≈ 0.143 µM)	≥ 1 mg/L	0.55 mg/L (≈ 1.75 µM)	≥ 1 mg/L
